Results reported in paper PMC12695923, “The role of N185D substitution in enhancing activity of BaqA∆C α-amylase” (Scientific Reports, 2025).

Target: T1, BaqAΔC (Rossellomorea aquimaris, UniProt G8IJA7)
T1 construct: gene baqA
T1 sequence (G8IJA7 24-478): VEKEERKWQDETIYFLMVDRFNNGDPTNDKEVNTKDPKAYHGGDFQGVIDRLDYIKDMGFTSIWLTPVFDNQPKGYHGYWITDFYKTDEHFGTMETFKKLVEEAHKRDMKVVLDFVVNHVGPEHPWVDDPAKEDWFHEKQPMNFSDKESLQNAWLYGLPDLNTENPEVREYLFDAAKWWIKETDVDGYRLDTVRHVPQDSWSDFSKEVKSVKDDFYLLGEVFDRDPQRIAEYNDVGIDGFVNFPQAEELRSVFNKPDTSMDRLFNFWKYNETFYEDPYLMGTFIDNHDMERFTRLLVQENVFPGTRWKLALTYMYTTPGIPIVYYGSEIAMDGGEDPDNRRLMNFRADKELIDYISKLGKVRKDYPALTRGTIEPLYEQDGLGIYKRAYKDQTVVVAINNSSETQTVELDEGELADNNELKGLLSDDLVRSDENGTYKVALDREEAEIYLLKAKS
Test: intrinsic fluorescence quenching, modified Stern-Volmer plot
Type: binding
Settings: 50 mM HEPES pH 8; 15 min at 50 °C, spectra at 25 °C; n = 1.3; acarbose 15-75 mM

Ka: 0.032 mL/mg
Compound: C[C@H]1O[C@H](O[C@H]2[C@H](O)[C@@H](O)[C@@H](O[C@H]3[C@H](O)[C@@H](O)C(O)O[C@@H]3CO)O[C@@H]2CO)[C@H](O)[C@@H](O)[C@@H]1N[C@H]1C=C(CO)[C@@H](O)[C@H](O)[C@H]1O (stereo partly shown) [acarbose]
